Measurements: patent US10004732B2 (Novartis AG, priority 2014, dated 2018)
Where two headings read alike, the source gives them in different places.

How the values were obtained:
PI 4-kinase beta = PI 4-kinase beta (Homo sapiens, UniProt Q9UBF8); assay: Kinase Glo Luminescent Kinase Assay (Kglo), assay D; type: biochemical; conditions: read-out: Assay D PI4Kβ IC50
mTOR = mTOR (Homo sapiens, UniProt P42345); assay: Lanthascreen kinase binding assay, assay G; conditions: read-out: Assay G mTOR IC50
Description: Lanthascreen™ Kinase Binding Assay for mTOR (G)
Binding of an inhibitor to the kinase competes for binding with the tracer, resulting in a loss of FRET.
50 nL of compound dilutions were dispensed onto white 384-well small volume polystyrene plate.

PI 3-kinase delta [1] = molecular target: T1, PI 3-kinase delta (Homo sapiens, UniProt O00329); assay: TR-FRET Adapta assay, assay F
Target sequence in this assay (O00329 whole entry): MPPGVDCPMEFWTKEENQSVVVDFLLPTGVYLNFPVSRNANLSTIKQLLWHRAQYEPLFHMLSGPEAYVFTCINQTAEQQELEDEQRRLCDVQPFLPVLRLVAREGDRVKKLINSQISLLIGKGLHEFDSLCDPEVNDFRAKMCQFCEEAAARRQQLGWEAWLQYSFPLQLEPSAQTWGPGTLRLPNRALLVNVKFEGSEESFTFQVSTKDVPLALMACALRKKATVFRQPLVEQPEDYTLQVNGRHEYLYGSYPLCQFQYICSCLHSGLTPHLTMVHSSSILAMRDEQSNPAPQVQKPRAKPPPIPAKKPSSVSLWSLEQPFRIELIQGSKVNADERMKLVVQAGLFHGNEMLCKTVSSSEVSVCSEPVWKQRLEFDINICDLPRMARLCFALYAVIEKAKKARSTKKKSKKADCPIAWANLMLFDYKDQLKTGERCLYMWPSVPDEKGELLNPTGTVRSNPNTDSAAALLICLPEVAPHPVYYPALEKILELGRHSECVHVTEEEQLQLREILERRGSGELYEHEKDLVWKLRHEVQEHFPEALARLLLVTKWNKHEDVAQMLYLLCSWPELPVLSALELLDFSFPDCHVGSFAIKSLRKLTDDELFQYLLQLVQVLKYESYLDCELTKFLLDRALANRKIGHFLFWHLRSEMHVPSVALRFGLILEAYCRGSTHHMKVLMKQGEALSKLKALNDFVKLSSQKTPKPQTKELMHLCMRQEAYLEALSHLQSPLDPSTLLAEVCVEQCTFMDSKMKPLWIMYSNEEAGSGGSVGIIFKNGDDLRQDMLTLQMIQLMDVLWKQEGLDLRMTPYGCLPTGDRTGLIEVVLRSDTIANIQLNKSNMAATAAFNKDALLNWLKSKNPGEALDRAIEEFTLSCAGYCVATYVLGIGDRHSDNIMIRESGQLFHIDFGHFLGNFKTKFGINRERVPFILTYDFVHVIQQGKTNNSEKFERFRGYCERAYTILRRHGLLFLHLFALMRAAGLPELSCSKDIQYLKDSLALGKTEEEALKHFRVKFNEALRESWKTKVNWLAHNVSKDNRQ
Target sequence in this assay (P27986 461-568 partner): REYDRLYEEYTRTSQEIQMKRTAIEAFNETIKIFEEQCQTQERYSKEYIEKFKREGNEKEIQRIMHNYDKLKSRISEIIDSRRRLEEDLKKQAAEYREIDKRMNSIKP

Vps34 = Vps34 (Homo sapiens, UniProt Q8NEB9); assay: Kinase Glo Luminescent Kinase Assay (Kglo), assay C; type: biochemical; conditions: read-out: Assay C VPS34 IC50
Sequence of Vps34 (Q8NEB9 whole entry, species assumed): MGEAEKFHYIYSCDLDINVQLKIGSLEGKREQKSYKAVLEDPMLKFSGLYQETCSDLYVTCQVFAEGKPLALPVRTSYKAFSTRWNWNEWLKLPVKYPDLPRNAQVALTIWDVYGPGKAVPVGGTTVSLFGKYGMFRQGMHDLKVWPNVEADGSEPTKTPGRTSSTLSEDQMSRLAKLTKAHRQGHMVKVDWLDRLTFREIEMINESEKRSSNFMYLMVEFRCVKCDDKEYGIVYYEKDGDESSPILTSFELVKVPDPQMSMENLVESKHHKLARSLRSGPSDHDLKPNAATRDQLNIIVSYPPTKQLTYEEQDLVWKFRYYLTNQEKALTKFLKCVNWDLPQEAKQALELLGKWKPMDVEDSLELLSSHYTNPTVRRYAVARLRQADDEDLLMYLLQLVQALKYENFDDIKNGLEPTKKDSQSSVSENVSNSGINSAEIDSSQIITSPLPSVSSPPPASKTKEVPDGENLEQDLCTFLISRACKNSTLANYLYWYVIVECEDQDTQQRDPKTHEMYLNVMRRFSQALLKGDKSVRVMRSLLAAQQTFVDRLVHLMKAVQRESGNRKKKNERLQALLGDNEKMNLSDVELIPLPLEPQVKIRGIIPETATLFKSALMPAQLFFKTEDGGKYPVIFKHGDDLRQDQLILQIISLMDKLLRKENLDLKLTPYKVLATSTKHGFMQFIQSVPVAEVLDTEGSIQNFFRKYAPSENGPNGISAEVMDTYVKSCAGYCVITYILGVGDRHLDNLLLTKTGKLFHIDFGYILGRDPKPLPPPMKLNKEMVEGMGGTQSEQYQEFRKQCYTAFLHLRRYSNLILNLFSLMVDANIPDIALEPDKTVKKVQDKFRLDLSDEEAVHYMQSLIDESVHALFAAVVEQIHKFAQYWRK

[2] = Microsomal clearance assay (M); conditions: intrinsic clearance in rat liver microsomes
Description: The experiments were performed in 96-well glass plates at 37° C. on an automated Tecan EVO platform. Test compounds at a concentration of 10 mM in pure DMSO were diluted 1:1000 in water to 10 μM. […] Reactions were initiated by the addition of 150 μL of a cofactor solution containing 2 mM NADPH.

PI 3-kinase delta [3] = molecular target: T1, PI 3-kinase delta; assay: Cellular assay J1, p-Akt (S473) in Rat-1 cells, Surefire format; type: cell-based; conditions: non-asterisked data: version J1 (Surefire format), Rat-1 cells; read-out: Assay J PI3Kδ IC50
Target sequence in this assay (O00329 whole entry): as the sequence (O00329 whole entry) above
Target sequence in this assay (Q63787 whole entry partner): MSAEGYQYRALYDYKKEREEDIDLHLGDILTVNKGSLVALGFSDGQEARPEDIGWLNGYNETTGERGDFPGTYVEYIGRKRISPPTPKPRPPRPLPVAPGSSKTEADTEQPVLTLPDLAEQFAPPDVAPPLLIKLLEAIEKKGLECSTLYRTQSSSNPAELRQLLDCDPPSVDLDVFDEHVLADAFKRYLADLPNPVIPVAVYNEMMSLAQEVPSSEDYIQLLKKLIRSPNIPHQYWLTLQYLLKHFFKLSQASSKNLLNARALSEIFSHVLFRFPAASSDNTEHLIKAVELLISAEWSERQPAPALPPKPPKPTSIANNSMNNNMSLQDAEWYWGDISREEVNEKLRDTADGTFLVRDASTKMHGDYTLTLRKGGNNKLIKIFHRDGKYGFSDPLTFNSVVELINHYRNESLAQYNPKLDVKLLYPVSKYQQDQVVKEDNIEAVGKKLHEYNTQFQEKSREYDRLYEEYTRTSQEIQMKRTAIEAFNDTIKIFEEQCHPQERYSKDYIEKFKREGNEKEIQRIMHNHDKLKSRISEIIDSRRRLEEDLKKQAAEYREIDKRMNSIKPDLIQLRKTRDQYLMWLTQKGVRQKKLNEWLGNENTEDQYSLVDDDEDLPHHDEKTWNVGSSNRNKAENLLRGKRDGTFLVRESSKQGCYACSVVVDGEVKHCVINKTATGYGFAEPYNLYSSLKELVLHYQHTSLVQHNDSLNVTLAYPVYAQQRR
Excerpt: Cellular Assays for PI 3-Kinase Alpha (H1), Beta (I1) and Delta (J1): Surefire Format
AlphaScreen (Amplified Luminescent Proximity Homogeneous Assay, ALPHA, Perkin Elmer) is a non-radioactive bead-based proximity assay technology to study biomolecular interactions in a homogenous microtiter plate format. The brand name SureFire denotes AlphaScreen assays that are adapted to quantify the phosphorylation of endogenous cellular proteins in cell lysates, by using matched antibody pairs, which consist of an anti-phospho-kinase and an anti-kinase antibody. The assay allows characterization of kinase signaling in cells as well as measurement of kinase inhibitor effects.
Using Rat-1 cells stably expressing myr-HA-tagged versions of the human PI3Kdelta, PI3Kalpha, or PI3Kbeta p110 catalytic subunit isoforms, the assay was developed as a two-plate protocol in a 384-well format.
For compound testing, the cells were seeded at a density of 4000 (Rat-1_PI3Kdelta), 7500 (Rat-1_PI3Kalpha), or 6200 (Rat-1_PI3Kbeta) cells in 20 μl complete growth medium into cell culture treated 384-well plates and were grown at 37° C./5% CO2/90% humidity for 24 h. Shortly before compound transfer, the complete medium was removed, 30 μl assay buffer (DMEM high glucose, 1×MEM NEAA, 10 mM HEPES, 2 mM L-glutamine, 0.1% (w/v) BSA) was added and 10 μl of the compound predilutions were transferred to the cells.

PI 3-kinase alpha [4] = molecular target: T2, PI 3-kinase alpha (Homo sapiens, UniProt P42336); assay: Cellular assay H1, p-Akt (S473) in Rat-1 cells, Surefire format; type: cell-based; conditions: non-asterisked data: version H1 (Surefire format), Rat-1 cells; read-out: Assay H PI3Kα IC50
Target sequence in this assay (P42336 whole entry): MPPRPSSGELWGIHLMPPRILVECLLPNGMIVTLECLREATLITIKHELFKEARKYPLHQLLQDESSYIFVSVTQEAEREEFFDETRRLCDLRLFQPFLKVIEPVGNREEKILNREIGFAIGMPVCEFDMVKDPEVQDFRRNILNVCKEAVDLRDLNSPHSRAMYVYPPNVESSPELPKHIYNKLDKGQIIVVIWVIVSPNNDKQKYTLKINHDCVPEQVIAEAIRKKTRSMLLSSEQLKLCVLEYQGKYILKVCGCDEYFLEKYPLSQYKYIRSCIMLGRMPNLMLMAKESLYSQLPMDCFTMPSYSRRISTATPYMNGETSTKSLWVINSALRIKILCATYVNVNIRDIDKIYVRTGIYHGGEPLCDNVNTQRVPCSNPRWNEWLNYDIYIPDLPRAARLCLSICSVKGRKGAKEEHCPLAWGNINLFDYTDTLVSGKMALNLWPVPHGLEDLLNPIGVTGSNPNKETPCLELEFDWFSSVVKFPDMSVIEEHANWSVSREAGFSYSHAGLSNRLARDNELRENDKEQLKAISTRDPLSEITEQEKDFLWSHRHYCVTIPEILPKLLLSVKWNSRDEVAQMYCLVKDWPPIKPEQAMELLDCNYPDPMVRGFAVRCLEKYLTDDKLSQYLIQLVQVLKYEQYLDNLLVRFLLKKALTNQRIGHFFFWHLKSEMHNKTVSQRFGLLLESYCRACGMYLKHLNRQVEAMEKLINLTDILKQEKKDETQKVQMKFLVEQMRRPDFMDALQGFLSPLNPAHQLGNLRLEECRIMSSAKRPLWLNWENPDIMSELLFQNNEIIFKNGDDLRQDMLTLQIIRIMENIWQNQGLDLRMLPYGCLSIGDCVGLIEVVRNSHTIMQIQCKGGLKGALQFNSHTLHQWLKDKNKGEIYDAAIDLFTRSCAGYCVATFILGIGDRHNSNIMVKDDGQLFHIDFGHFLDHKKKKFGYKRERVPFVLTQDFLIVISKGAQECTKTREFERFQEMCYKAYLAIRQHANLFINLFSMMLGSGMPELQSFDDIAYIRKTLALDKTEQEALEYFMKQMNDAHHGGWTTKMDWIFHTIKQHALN
Target sequence in this assay (Q63787 whole entry partner): as the sequence (Q63787 whole entry partner) above

PI 3-kinase gamma [5] = molecular target: T3, PI 3-kinase gamma (Homo sapiens, UniProt P48736); assay: Cellular U937 AKT assay K1 (MSD); type: cell-based; conditions: U937 cells, K1 format; read-out: Assay K1 PI3Kγ IC50
T3 sequence (P48736 whole entry): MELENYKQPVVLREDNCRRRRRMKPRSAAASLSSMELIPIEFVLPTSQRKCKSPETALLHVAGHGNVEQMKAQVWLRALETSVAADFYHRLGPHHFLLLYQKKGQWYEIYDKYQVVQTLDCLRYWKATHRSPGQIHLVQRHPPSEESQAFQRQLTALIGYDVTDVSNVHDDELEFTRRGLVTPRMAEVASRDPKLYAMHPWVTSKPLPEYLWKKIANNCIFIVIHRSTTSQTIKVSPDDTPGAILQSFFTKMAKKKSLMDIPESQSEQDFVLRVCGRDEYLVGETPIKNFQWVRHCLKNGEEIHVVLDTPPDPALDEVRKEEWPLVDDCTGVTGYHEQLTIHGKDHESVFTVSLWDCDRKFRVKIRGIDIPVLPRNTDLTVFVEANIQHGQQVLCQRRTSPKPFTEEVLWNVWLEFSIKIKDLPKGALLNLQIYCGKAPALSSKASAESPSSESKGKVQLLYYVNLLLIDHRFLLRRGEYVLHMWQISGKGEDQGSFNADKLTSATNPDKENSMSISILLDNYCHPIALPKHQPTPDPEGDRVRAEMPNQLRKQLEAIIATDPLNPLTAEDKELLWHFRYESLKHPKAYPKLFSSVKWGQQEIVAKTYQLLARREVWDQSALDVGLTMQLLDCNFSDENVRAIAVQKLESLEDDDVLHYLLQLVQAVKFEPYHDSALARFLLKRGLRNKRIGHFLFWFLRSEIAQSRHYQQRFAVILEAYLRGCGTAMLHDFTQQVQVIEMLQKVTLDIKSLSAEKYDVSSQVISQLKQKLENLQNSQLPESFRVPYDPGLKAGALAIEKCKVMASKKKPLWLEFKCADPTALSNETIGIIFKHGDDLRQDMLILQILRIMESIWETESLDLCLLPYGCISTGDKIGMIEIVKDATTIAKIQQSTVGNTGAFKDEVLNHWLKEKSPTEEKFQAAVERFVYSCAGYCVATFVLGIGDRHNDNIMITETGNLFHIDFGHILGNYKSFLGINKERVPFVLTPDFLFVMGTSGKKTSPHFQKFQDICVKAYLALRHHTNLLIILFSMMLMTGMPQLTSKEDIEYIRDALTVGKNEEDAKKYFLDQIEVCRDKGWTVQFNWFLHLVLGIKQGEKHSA

PI 3-kinase beta [6] = molecular target: T4, PI 3-kinase beta (Homo sapiens, UniProt P42338); assay: Cellular assay I1, p-Akt (S473) in Rat-1 cells, Surefire format; type: cell-based; conditions: non-asterisked data: version I1 (Surefire format), Rat-1 cells; read-out: Assay I PI3Kβ IC50
[7] = tested on: IL-8-induced neutrophil shape change in human whole blood; assay: Whole blood neutrophil shape change assay (L); type: cell-based; conditions: IL-8, human whole blood, read-out: Assay L WBSC IC50
Description: Whole Blood Neutrophil Shape Change Assay (L)
IL-8 was made up to 2 μM stocks in 0.1% bovine serum albumin/PBS and stored at −80° C. On the day IL-8 was diluted in PBS (phosphate buffered saline) 10 minutes before use. IL-8 was used at final concentration of 2 nM and a concentration range from 0.003 to 200 nM for the donor dose response curve.
Assay fixative solution was prepared fresh each day from 10× concentrated CellFIX™ solution diluted 1:10 in sterile distilled water and then 1:4 with PBS. Assay fixative solution was kept on ice prior to use.
A 10× lysis buffer was prepared in advance by dissolving 20.75 g NH4Cl and 2.5 g KHCO3 in 250 ml sterile H2O. This 10× lysis buffer was filtered under sterile conditions and stored for up to two weeks at 4° C. On the day a 1× lysis solution was prepared with sterile distilled H2O and kept on ice prior to use.
The test compounds were prepared as 10 mM stock solutions in 100% DMSO and were stored at 4° C. Once in use for an assay 10 mM stock compounds were thawed and stored at RT protected from light. Compound dilutions were prepared fresh on the day. The first series of dilutions in 100% DMSO were done first thing in the morning. Only once blood had been collected and arrived in laboratory was the next set of dilutions into PBS carried out (1:10 PBS, 10% DMSO). This limited the exposure of diluted compound to plastic and made sure the exposure timing was consistent between assays.
Compound dilutions in 100% DMSO were prepared as described previously. Human whole blood was collected in K2 EDTA Vacutainers. Once blood was in the laboratory, compound dilutions into PBS were carried out as described previously and depicted in Table 1.
The outer wells of the deep well assay plate were filled with 1200 μl of sterile distilled H2O in an effort to limit edge effects (rows A1-H1, A1-A12, A12-H12).
An IL-8 dose response was determined for each blood donor examined, to monitor the donor response to IL-8. At this step in assay preparation for the IL-8 dose response samples 10 μl of PBS was added to designated wells. In addition the assay window without DMSO was also assessed each day. For such samples at this step in assay preparation 10 μl of PBS was added in the place of 10% DMSO.
Lids were placed on the 96 well plates and samples were incubated for 15 minutes at 37° C. in a water-bath.
Following the compound pre-incubation 10× final IL-8 was added to appropriate wells (10 μl of 20 nM working stock IL-8, final IL-8 concentration in blood=2 nM) and 10 μl of PBS was added to the un-stimulated controls. 10× final dose response range IL-8 was also added to designated wells (final concentration range on assay plate was 200 nM to 0.0005 nM, 1:5 serial dilution in PBS). The IL-8 and PBS were added to appropriate wells across all assay plates in the same sequence as the blood to compound addition. […] Samples were incubated for 5 minutes at 37° C. in a water-bath. Following the incubation sample plates were transferred to ice where 250 μl of chilled Assay Fixative Buffer was added promptly to all wells.
Samples were incubated on ice for 7 minutes (no mixing). […] Once added samples were mixed once and incubated on ice for 30 minutes to achieve uniform red blood cells lysis. After lysis, 200 μl of sample was transferred to a 96 well microplate on ice. […] Granulocytes were identified based on differential side scatter (SSC) and forward scatter (FSC) characteristics.

PI 3-kinase beta [8] = molecular target: T4, PI 3-kinase beta; assay: Kinase Glo Luminescent Kinase Assay (Kglo), assay B; type: biochemical; conditions: read-out: Assay B PI3Kβ IC50
PI 3-kinase alpha [9] = molecular target: T2, PI 3-kinase alpha; assay: Kinase Glo Luminescent Kinase Assay (Kglo), assay A; type: biochemical; conditions: read-out: Assay A PI3Kα IC50
Target sequence in this assay (P42336 whole entry): as the sequence (P42336 whole entry) above

PI 3-kinase gamma [10] = molecular target: T3, PI 3-kinase gamma; assay: TR-FRET Adapta assay, assay E; type: biochemical; conditions: read-out: Assay E PI3Kγ IC50

IC50 (PI 4-kinase beta) [nM] | IC50 (mTOR) [nM] | IC50 (PI 3-kinase delta [1]; read-out: Assay F PI3Kδ IC50) [nM] | IC50 (Vps34) [nM] | Assay M RLM CI(int) [2] [µL/min/mg] | IC50 (PI 3-kinase delta [3]) [nM] | IC50 (PI 3-kinase alpha [4]) [nM] | IC50 (PI 3-kinase gamma [5]) [nM] | IC50 (PI 3-kinase beta [6]) [nM] | IC50 ([7]; Homo sapiens, Neutrophil) [nM] | IC50 (PI 3-kinase beta [8]) [nM] | IC50 (PI 3-kinase alpha [9]) [nM] | IC50 (PI 3-kinase gamma [10]) [nM] | IC50 [7] [nM] | IC50 (PI 3-kinase delta [1]) [nM] | SMILES
> 9100 | > 9100 | 1800 | > 9100 | 18 | > 10000 | > 10000 | 800 | > 10000 | 2000 | 7000 | 2000 | 39 | – | – | Cc1cc(-c2nc(-c3cc(S(=O)(=O)NCC4(O)COC4)ccc3C)cnc2N)ccn1 [Example 129.32, 3-(5-amino-6-(2-methylpyridin-4-yl)pyrazin-2-yl)-N-((3-hydroxyoxetan-3-yl)methyl)-4-methylbenzenesulfonamide]
> 10000 | 9600 | 690 | > 10000 | 227 | 5180 | 6680 | 135 | 8470 | – | 1400 | 390 | 57 | 1950 | – | Cc1ccc(S(=O)(=O)N[C@H]2CC[C@@](C)(O)CC2)cc1-c1cnc(N)c(-n2cncn2)n1 [Example 69b, 3-(5-amino-6-(1H-1,2,4-triazol-1-yl)pyrazin-2-yl)-N-(cis-4-hydroxy-4-methylcyclohexyl)-4-methylbenzenesulfonamide]
6610 | > 9100 | 250 | 8490 | 61 | 1190 | 1240 | 189 | 4370 | 543 | 3850 | 370 | 46 | – | – | Cc1ccc(S(=O)(=O)NCCC(C)(C)O)cc1-c1cnc(N)c(-n2cncn2)n1 [Example 64, 3-(5-Amino-6-(1H-1,2,4-triazol-1-yl)pyrazin-2-yl)-N-(3-hydroxy-3-methylbutyl)-4-methylbenzenesulfonamide]
7400 | 2200 | 160 | 1800 | 36 | 920 | 1330 | 68 | 2930 | 249 | 860 | 90 | 3 | – | – | Cc1ccc(S(=O)(=O)NC2CC3(CC(O)C3)C2)cc1-c1cnc(N)c(-n2cncn2)n1 (centres unmarked) [Example 67, 3-(5-Amino-6-(1H-1,2,4-triazol-1-yl)pyrazin-2-yl)-N-(6-hydroxyspiro[3.3]heptan-2-yl)-4-methylbenzenesulfonamide]
8540 | > 9100 | 860 | > 9100 | 31 | 3550 | 8800 | 260 | > 10000 | 4830 | > 9100 | 2700 | 4 | – | – | CCc1nnc(-c2nc(-c3cc(S(=O)(=O)N[C@H]4CC[C@H](O)CC4)ccc3C)cnc2N)o1 [Example 138, Trans-3-(5-Amino-6-(5-ethyl-1,3,4-oxadiazol-2-yl)pyrazin-2-yl)-N-((1r,4r)-4-hydroxycyclohexyl)-4-methylbenzenesulfonamide]
7890 | 6990 | 50 | > 9100 | 116 | 480 | 3810 | 98 | 1650 | 407 | 5210 | 300 | 24 | – | – | Cc1ccc(S(=O)(=O)NCCC(C)(C)O)cc1-c1cnc(N)c(-c2csc(CN3CCOCC3)c2)n1 [Example 30, 3-[5-Amino-6-(5-morpholin-4-ylmethyl-thiophen-3-yl)-pyrazin-2-yl]-N-(3-hydroxy-3-methyl-butyl)-4-methyl-benzenesulfonamide]
> 9100 | > 9100 | 240 | > 9100 | 87 | 1440 | 1450 | 155 | > 10000 | 802 | 4030 | 440 | 22 | – | – | Cc1ncn(-c2nc(-c3cc(S(=O)(=O)NCCC(C)(C)O)ccc3C)cnc2N)n1 [Example 65, 3-(5-Amino-6-(3-methyl-1H-1,2,4-triazol-1-yl)pyrazin-2-yl)-N-(3-hydroxy-3-methylbutyl)-4-methylbenzenesulfonamide]
4160 | 4370 | – | > 9550 | 30 | 9390 | 7840 | 63 | 8750 | 359 | 5220 | 180 | 51 | – | 1700 | Cc1cc(-c2nc(-c3cc(S(=O)(=O)N[C@H]4CC[C@H](O)CC4)ccc3C)cnc2N)ccn1 [Example 135, 3-(5-Amino-6-(2-methylpyridin-4-yl)pyrazin-2-yl)-N-((1r,4r)-4-hydroxycyclohexyl)-4-methylbenzenesulfonamide]
3700 | 6510 | 300 | > 9100 | 27 | 910 | 2550 | 38 | 4460 | 675 | 3240 | 510 | 26 | – | – | Cc1cc(-c2nc(-c3cc(S(=O)(=O)N[C@H]4CC[C@H](O)CC4)ccc3C)cnc2N)on1 [Example 4, Trans-3-[5-Amino-6-(3-methyl-isoxazol-5-yl)-pyrazin-2-yl]-N-(4-hydroxy-cyclohexyl)-4-methyl-benzenesulfonamide]
4400 | 3800 | 120 | > 9550 | 37 | 1030 | 1040 | 40 | 2510 | 917 | 2000 | 160 | 27 | – | – | Cc1ccc(S(=O)(=O)NOCC(C)(C)O)cc1-c1cnc(N)c(-n2cncn2)n1 [Example 31, 3-(5-Amino-6-[1,2,4]triazol-1-yl-pyrazin-2-yl)-N-(2-hydroxy-2-methyl-propoxy)-4-methyl-benzenesulfonamide]
5300 | > 9100 | 40 | > 9100 | 78 | 1140 | 3020 | 93 | 2870 | 581 | 3000 | 180 | 24 | – | – | Cc1ccc(S(=O)(=O)NCCC(C)(C)O)cc1-c1cnc(N)c(-c2cnn(Cc3ccccn3)c2)n1 [Example 119.37]
2740 | > 9100 | 150 | > 9100 | 29 | 850 | 2250 | 28 | 3250 | 515 | 1880 | 390 | 13 | – | – | Cc1ccc(S(=O)(=O)N[C@H]2CC[C@H](O)CC2)cc1-c1cnc(N)c(-n2cccn2)n1 [Example 103, 3-(5-Amino-6-(1H-pyrazol-1-yl)pyrazin-2-yl)-N-((1r,4r)-4-hydroxycyclohexyl)-4-methylbenzenesulfonamide]
> 9100 | 4810 | 110 | > 9100 | 141 | 2030 | 1690 | 140 | 7410 | 2010 | 770 | 190 | 17 | – | – | Cc1ccc(S(=O)(=O)NC2CCC(F)(F)CC2)cc1-c1cnc(N)c(-c2cnn(C)c2)n1 [Example 54, 3-(5-Amino-6-(1-methyl-1H-pyrazol-4-yl)pyrazin-2-yl)-N-(4,4-difluorocyclohexyl)-4-methylbenzenesulfonamide]
4410 | 6000 | 190 | > 9100 | 44 | 2150 | 1250 | 179 | > 10000 | 963 | 7380 | 230 | 49 | – | – | Cc1cc(-c2nc(-c3cc(S(=O)(=O)NCCC(C)(C)O)ccc3C)cnc2N)ccn1 [Example 119.28]
